{"source": "patent US7078395B1", "about": "“Methods for treating or preventing cancer by preventing, inhibiting or arresting cell cycling” (priority 1999, dated 2006)", "key": {"[1]": {"tested_on": "MCF7 cells", "assay": "Proportion of cells in mitosis (PI stained cytospins, confocal microscopy)", "format": "cell-based", "conditions": "24 hours (control 4%)", "protocol": "To determine the proportion of cells in mitosis, drug treated cells were collected by trypsinisation and cytospins prepared. Cells were fixed in ice cold methanol for 5 minutes, air dried and DNA was stained using propidium iodide (PI) (0.1 mg/ml in phosphate buffered saline (PBS) containing 10% (v/v) newborn calf serum and 0.05% (w/v) sodium azide). Cells were analysed by confocal microscopy using a Zeiss Axiovert 100 M microscope equipped with the LSM 510 confocal system (Zeiss, Jena, Germany).\nEffect of estrone derivatives on mitosis in MCF7 cells. MCF7 cells were treated with the indicated compounds for 24 hours. Cells were recovered by trypsinisation and cytospins prepared. DNA was stained with PI and cells in mitosis (i.e., with condensed chromosomes) determined as a percentage of total cells."}, "[2]": {"tested_on": "MCF-7 cells", "assay": "Flow cytometry analysis of cell cycle distribution (propidium iodide)", "format": "cell-based", "conditions": "10 μM; for proportion of cells in the G1 phase: time-course study (untreated 66%)", "protocol": "Cells were cultured in the presence of 2-MeOE1, 2-MeOEMATE or vehicle for up to 48 h. To examine the reversibility of the effects of 2-MeOEMATE on the cell cycle, cells were treated for 24 h with the drug after which cells were washed and cultured in fresh medium without drug for a further 24 h period.\nTo prepare cells for analysis of DNA content, cells were trypsinised (0.25% trypsin, 0.02% EDTA), washed with PBS and fixed with 70% ethanol. Cells were collected by centrifugation, re-suspended in PBS (1-2×10^6 cells/ml) and treated with RNase A (0.1 mg/ml) and stained with propidium iodide (0.05 mg/ml) for 30 min at room temperature. Cells were analysed with a flow cytometer (FACscan, Becton Dickinson Immunocytormetry System, Bedford Mass.)."}}, "data": [{"smiles": "COc1cc2c(cc1OS(N)(=O)=O)CCC1C2CC[C@]2(C)C(=O)CCC12", "note": "(some centres unmarked) [2-MeOEMATE, 2-methoxyoestrone-3-O-sulphamate]", "values": [{"measurement": "mitotic cells, percentage of total cells", "setting": "[1]; 500 nM", "result": 26, "unit": "%"}, {"measurement": "mitotic cells, percentage of total cells", "setting": "[1]; 5 μM", "result": 38, "unit": "%"}, {"measurement": "time by which accumulation of cells in the G2/M phase was apparent", "setting": "[2]", "result": "≤ 12", "unit": "h"}, {"measurement": "proportion of cells in the G1 phase", "setting": "[2]; 12 h exposure", "result": 50, "unit": "%"}, {"measurement": "cell cycle distribution, G1", "setting": "[2]; 24 h", "result": 10}, {"measurement": "cell cycle distribution, G2/M", "setting": "[2]; 24 h", "result": 60}, {"measurement": "cell cycle distribution, S", "setting": "[2]; 24 h", "result": 8}, {"measurement": "cell cycle distribution, Sub-G1", "setting": "[2]; 24 h", "result": 22}, {"measurement": "cell cycle distribution, G1", "setting": "[2]; 24 h + 24 h drug-free culture", "result": 8}, {"measurement": "cell cycle distribution, G2/M", "setting": "[2]; 24 h + 24 h drug-free culture", "result": 57}, {"measurement": "cell cycle distribution, S", "setting": "[2]; 24 h + 24 h drug-free culture", "result": 7}, {"measurement": "cell cycle distribution, Sub-G1", "setting": "[2]; 24 h + 24 h drug-free culture", "result": 27}, {"measurement": "proportion of cells in the G1 phase", "setting": "[2]; 24 h exposure", "result": 23, "unit": "%"}, {"measurement": "cell cycle distribution, G1", "setting": "[2]; 48 h", "result": 14}, {"measurement": "cell cycle distribution, G2/M", "setting": "[2]; 48 h", "result": 58}, {"measurement": "cell cycle distribution, S", "setting": "[2]; 48 h", "result": 9}, {"measurement": "cell cycle distribution, Sub-G1", "setting": "[2]; 48 h", "result": 18}]}]}
